These results are taken from the supplement of paper PMC10307832.

Common to all, as to experiment: relative viability (nuclei count vs DMSO), 5 days (fraction); higher = more cells survive
Compound in assay [1]: CC1=CC=C(C=C1)C(=O)CN2C3=C(CCCC3)SC2=N [Pifithrin_alpha] + N=C(N)NC(=N)NCCc1ccccc1 [Phenformin] (partner 250 µM)
Summed up:
(§1)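 Relative viability divides the nuclei count in treated wells by that in vehicle wells. Lung cancer cell lines were seeded in 1536-well plates, dosed by pin tool the next day, and fixed and stained after 5 days in one step with final 0.05% Triton X-100, 1% formaldehyde and 1 ug/ml Hoechst. Dosing was a single drug or a fixed anchor-drug dose plus five library-drug doses (not always all listed) in √10 steps, and values are medians of duplicate plates imaged at 4×.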

Compound in the assay “Bemcentinib + Bortezomib”: Nc1nc(Nc2ccc3c(c2)CC[C@@H](N2CCCC2)CC3)nn1-c1cc2c(nn1)-c1ccccc1CCC2 [Bemcentinib] + CC(C)C[C@H](NC(=O)[C@H](Cc1ccccc1)NC(=O)c1cnccn1)B(O)O [Bortezomib] (partner 0.002 µM)
The method, boiled down:
as §1

Compound in the assay “Axitinib + Bortezomib”: CNC(=O)c1ccccc1Sc1ccc2c(/C=C/c3ccccn3)n[nH]c2c1 [Axitinib] + CC(C)C[C@H](NC(=O)[C@H](Cc1ccccc1)NC(=O)c1cnccn1)B(O)O [Bortezomib] (partner 0.002 µM)
Summed up:
as §1

Compound in assay [2]: CC1=CC=C(C=C1)C(=O)CN2C3=C(CCCC3)SC2=N [Pifithrin_alpha] + COc1cccc2cc(-c3nc([C@H]4CC[C@H](C(=O)O)CC4)n4ncnc(N)c34)[nH]c12 [OSI-027] (partner 0.5 µM)
The method, boiled down: as §1

Consider PC-14, for which the relative viability in assay [1] (first compound 1 µM) turned out to be 0.536; in assay [1] (first compound 3.162 µM) it was 0.567; in assay [1] (first compound 10 µM) it was 0.525; in assay [1] (first compound 31.62 µM), 0.406; in assay [1] (first compound 100 µM) it was 0.413; with Bemcentinib + Bortezomib (first compound 0.04 µM) it was 0.86. For the same cell line, the relative viability stood at 0.849 with Bemcentinib + Bortezomib (first compound 0.1265 µM); 0.934 with Bemcentinib + Bortezomib (first compound 0.4 µM); 0.911 in the assay with Bemcentinib + Bortezomib (first compound 1.265 µM); 1 in the assay with Bemcentinib + Bortezomib (first compound 4 µM); 1.04 with Axitinib + Bortezomib (first compound 0.005 µM); 0.894 with Axitinib + Bortezomib (first compound 0.01581 µM). The relative viability in the assay with Axitinib + Bortezomib (first compound 0.05 µM) worked out at 0.81; with Axitinib + Bortezomib (first compound 0.1581 µM), 0.826; with Axitinib + Bortezomib (first compound 0.5 µM) it was 1.08; in assay [2] (first compound 1 µM), 0.822; in assay [2] (first compound 3.162 µM), 0.889; in assay [2] (first compound 10 µM), 0.827. Also, the relative viability was determined as 0.464 in assay [2] (first compound 31.62 µM) and 0.605 in assay [2] (first compound 100 µM).
For the cell line RERF-LC-KJ, the relative viability in assay [1] (first compound 1 µM) is 0.454; in assay [1] (first compound 3.162 µM) it was 0.402; in assay [1] (first compound 10 µM), 0.368; in assay [1] (first compound 31.62 µM) it was 0.316; in assay [1] (first compound 100 µM), 0.263; with Bemcentinib + Bortezomib (first compound 0.04 µM), 1.1. Moreover, the relative viability is 1.29 with Bemcentinib + Bortezomib (first compound 0.1265 µM); 1.3 in the assay with Bemcentinib + Bortezomib (first compound 0.4 µM); 1.21 with Bemcentinib + Bortezomib (first compound 1.265 µM); 1.09 with Bemcentinib + Bortezomib (first compound 4 µM); 1.12 with Axitinib + Bortezomib (first compound 0.005 µM); 1.12 in the assay with Axitinib + Bortezomib (first compound 0.01581 µM). Besides, the relative viability came out at 1.02 with Axitinib + Bortezomib (first compound 0.05 µM); 1.14 with Axitinib + Bortezomib (first compound 0.1581 µM); 1.19 with Axitinib + Bortezomib (first compound 0.5 µM); 0.586 in assay [2] (first compound 1 µM); 0.477 in assay [2] (first compound 3.162 µM); 0.421 in assay [2] (first compound 10 µM). The results for the relative viability in assay [2] (first compound 31.62 µM) and in assay [2] (first compound 100 µM) were 0.393 and 0.317, respectively.
Regarding SK-LU-1, the relative viability was 0.511 in assay [1] (first compound 1 µM); 0.624 in assay [1] (first compound 3.162 µM); 0.49 in assay [1] (first compound 10 µM); 0.625 in assay [1] (first compound 100 µM); 1.02 with Bemcentinib + Bortezomib (first compound 0.04 µM); 1.35 with Bemcentinib + Bortezomib (first compound 0.1265 µM). Besides, the relative viability with Bemcentinib + Bortezomib (first compound 0.4 µM) came to 1.38; with Bemcentinib + Bortezomib (first compound 1.265 µM), 1.3; with Bemcentinib + Bortezomib (first compound 4 µM), 1.25; with Axitinib + Bortezomib (first compound 0.005 µM), 1.29; with Axitinib + Bortezomib (first compound 0.01581 µM), 1.2; with Axitinib + Bortezomib (first compound 0.05 µM), 1.43. For the same cell line, the relative viability with Axitinib + Bortezomib (first compound 0.1581 µM) was 1.08; in the assay with Axitinib + Bortezomib (first compound 0.5 µM), 1.08; in assay [2] (first compound 1 µM) it was 0.353; in assay [2] (first compound 3.162 µM), 0.353; in assay [2] (first compound 10 µM) it was 0.354; in assay [2] (first compound 100 µM), 0.3.
For SW 1573, the relative viability in assay [1] (first compound 1 µM) was determined as 0.357; in assay [1] (first compound 3.162 µM), 0.39; in assay [1] (first compound 10 µM) it was 0.436; in assay [1] (first compound 31.62 µM) it was 0.37; in assay [1] (first compound 100 µM), 0.346; with Bemcentinib + Bortezomib (first compound 0.04 µM) it was 1.09. In addition, the relative viability with Bemcentinib + Bortezomib (first compound 0.1265 µM) was 0.973; in the assay with Bemcentinib + Bortezomib (first compound 0.4 µM) it was 1.14; with Bemcentinib + Bortezomib (first compound 1.265 µM) it was 0.97; with Bemcentinib + Bortezomib (first compound 4 µM) it was 1.15; in the assay with Axitinib + Bortezomib (first compound 0.005 µM) it was 1.19; in the assay with Axitinib + Bortezomib (first compound 0.01581 µM), 1.05. Moreover, the relative viability stood at 0.944 in the assay with Axitinib + Bortezomib (first compound 0.05 µM); 0.923 with Axitinib + Bortezomib (first compound 0.1581 µM); 0.994 with Axitinib + Bortezomib (first compound 0.5 µM); 0.662 in assay [2] (first compound 1 µM); 0.601 in assay [2] (first compound 3.162 µM); 0.572 in assay [2] (first compound 10 µM). Moreover, the relative viability in assay [2] (first compound 31.62 µM) was 0.422; in assay [2] (first compound 100 µM) it was 0.76.
Turning to UMC-11, the relative viability is 0.312 in assay [1] (first compound 1 µM); 0.337 in assay [1] (first compound 3.162 µM); 0.322 in assay [1] (first compound 10 µM); 0.287 in assay [1] (first compound 31.62 µM); 0.303 in assay [1] (first compound 100 µM); 0.413 with Bemcentinib + Bortezomib (first compound 0.04 µM). In addition, the relative viability with Bemcentinib + Bortezomib (first compound 0.1265 µM) was 0.771; with Bemcentinib + Bortezomib (first compound 0.4 µM), 0.724; with Bemcentinib + Bortezomib (first compound 1.265 µM) it was 0.428; with Bemcentinib + Bortezomib (first compound 4 µM) it was 0.682; in the assay with Axitinib + Bortezomib (first compound 0.005 µM), 0.977; with Axitinib + Bortezomib (first compound 0.01581 µM), 0.722. In addition, the relative viability in the assay with Axitinib + Bortezomib (first compound 0.05 µM) was 0.65; in the assay with Axitinib + Bortezomib (first compound 0.1581 µM) it was 0.637; in the assay with Axitinib + Bortezomib (first compound 0.5 µM), 0.589; in assay [2] (first compound 1 µM), 0.537; in assay [2] (first compound 3.162 µM), 0.518; in assay [2] (first compound 10 µM), 0.56. For the same cell line, the relative viability in assay [2] (first compound 31.62 µM) worked out at 0.485; in assay [2] (first compound 100 µM), 0.456.
